Reference: a melting point compilation (Tetko et al.; mined from patent text by program, amines drawn as free bases though some values may be those of a salt)

| melting point | Structure (SMILES) |
| --- | --- |
| 303 to 305 °C | CNc1cc(NS(=O)(=O)c2ccc(N)cc2)nc(NC)n1 |
| 196 °C | CCN(CC)C(=O)c1ccc(Cl)c(Cl)c1Br |
| 94 to 96 °C | COc1cccc(-c2c(F)c(F)c(N)c(F)c2F)c1 |
| 93 to 96 °C | CC(=O)c1cc(-c2ccncc2)sc1Oc1ccccc1F |
| 164 to 165 °C | CC(C)N1Cc2cccnc2N(c2ccccc2)C1=O |
| 207 to 209 °C | CC1=C(C#N)C(c2ccccc2C(F)(F)F)c2c(ccnc2OC(C)C)N1 (centres undefined) |
| 120 to 122 °C | COC(=O)c1cc(OC)c(Br)c(OC)c1 |
| 218 to 219 °C | CN(C)C=NCc1ccc2c(c1)Nc1nccnc1S2 |
| 150 °C | CC1C(=O)N(c2ccc(F)cc2)C(=S)N1c1ccc(Oc2ccccc2)cc1 (centres undefined) |
| 189 to 191 °C | CN(C)c1ccc(C(=O)N2CCC(c3[nH]nc4c3C(=O)c3c(NC(=O)NN5CCOCC5)cccc3-4)CC2)cc1 |
| 255 °C | CN(CCN(C)CCN1C(=O)c2cccc3cc4ccccc4c(c23)C1=O)CCN1C(=O)c2cccc3cc4ccccc4c(c23)C1=O |
| 249 to 250 °C | CCCCCCCCCCCCc1ccc(S(=O)(=O)Nc2nnc(S(N)(=O)=O)s2)cc1 |
| 110 to 112 °C | COc1ccc(CC(O)c2ccccn2)cc1 (centres undefined) |
| 128 to 130 °C | C#CCN(C(=O)CO)c1c(C)nc(N(C)C)nc1C |
| 190 °C | CCCn1nnn(-c2ccc(N3CCN(c4ccc(OC)cc4)CC3)cc2)c1=O |
| 207 to 209 °C | CCCc1nc2c(N)nc3ccccc3c2n1CCCC(CC(C)C)=NO |
| 194 to 195 °C | COc1ccc(C=C(C#N)C(N)=O)c([N+](=O)[O-])c1OC |
| 139 to 141 °C | CCOC(=O)c1cnccc1CSc1nc(C)c(CC(=O)O)s1 |
| 50 to 51 °C | O=C(CCCOc1ccccc1OCc1ccccc1)C(F)(F)F |
| 162 to 164 °C | Fc1ccc(Nc2cc(Cl)nc(NN=Cc3ccc(OC(F)(F)F)cc3)n2)cc1C(F)(F)F |
| 133 to 135 °C | CC1(CSC#N)SC2C(NC(=O)Cc3ccccc3)C(=O)N2C1C(=O)OCC(Cl)(Cl)Cl (centres undefined) |
| 74.5 to 75.5 °C | CCCN1CCOc2cccc3nc4c(c1c23)CCCC4 |
| 132 to 134 °C | Cc1cccc2[nH]c3c(c12)CCOC3(C)CC(=O)O (centres undefined) |

| melting point | Structure (SMILES) |
| --- | --- |
| 112 to 114 °C | CN(C)C(=O)c1ccccc1Sc1ccc(Br)cc1[N+](=O)[O-] |
| 252 °C | CNN(NC)C(=O)Nc1cccc2c1C(=O)c1c-2n[nH]c1-c1cc(C)sc1C |
| 184 to 185 °C | COc1ccc(C2=NN(C3CCN(C(=O)N4CCOCC4)CC3)C(=O)[C@@H]3CC=CC[C@H]23)cc1OC |
| 119 to 121 °C | COC(=O)c1ccc(I)c2c1Nc1ccccc1C2 |
| 110 to 119 °C | COc1cc(N2CCC(N3CCOCC3)C2)ccc1Nc1ncc2ccc(-c3ccccc3N(C)S(C)(=O)=O)n2n1 (centres undefined) |
| 155 to 156 °C | COc1ccc2c(c1)C(=O)N(CCN(C)CCN1C(=O)c3ccccc3C(C)(C)C1=O)C(=O)C2(C)C |
| 75 to 76 °C | CCCC1CCCNC1=O (centres undefined) |
| 147 to 149 °C | CN1CCN(c2cc(Cl)cc3c2c(=O)n(Cc2ccccc2F)c(=O)n3Cc2ccccc2)CC1 |
| 126 to 128 °C | COc1cc(Oc2cccc(C(F)(F)F)c2)nc(C(=S)Nc2ccccc2)c1 |
| 143 to 144 °C | COc1cc(COc2nc(-c3ccccc3)ncc2C=O)ccc1OCc1nc(-c2ccco2)oc1C |
| 193 °C | Cn1cnc(COc2nn3c(-c4ccccc4F)nnc3cc2C2(C)CCC(F)(F)CC2)n1 |
| 212 to 214 °C | COc1cc(N)c(Cl)cc1C(=O)NC1CCN(CC2CCN(C(=O)Nc3ccccc3)CC2)CC1 |
| 65 to 69 °C | COC(=O)C1CCCCc2c(-c3ccc(Cl)cc3)noc2C1 (centres undefined) |
| 184 to 187 °C | Cc1nc2c(N)nc3ccccc3c2s1 |
| 87 to 103 °C | CCN1CCc2ccc(OC)c(Nc3ncc(Cl)c(Nc4ccc(N5CCOCC5)cc4OC)n3)c2CC1=O |
| 103 to 105 °C | CCOC(=O)Cc1c(C)n(-c2ncnc3cc(Cl)ccc23)c2ccc(OC)cc12 |
| 148 to 150 °C | COc1ccc(/C=C/C(=O)Nc2ccccc2C(=O)OCC(=O)NCC(C)(C)S)cc1OC |
| 88 °C | CN1CCc2cc(C=O)sc2C(c2ccccc2)C1 (centres undefined) |
| 161 to 162 °C | CC(C)C[C@@H](C(=O)O)n1sc2ccc(F)cc2c1=O |
| 148 to 150 °C | CCOC(=O)c1cnn2c(NCc3ccc(-c4ccccc4C#N)cc3)ccnc12 |
| 152 °C | N#CCc1c(Cl)ccc2cc(Cl)cnc12 |
| 198 to 200 °C | O=[N+]([O-])c1cc(-c2ccoc2)ccc1Nc1cc(-n2ccnc2)ncn1 |
| 160 °C | N=C(N)c1ccc(O)cc1 |

| melting point | Structure (SMILES) |
| --- | --- |
| 107 to 110 °C | COc1cccc(NC(SC)=C(C#N)S(=O)(=O)C(C)C)c1 |
| 195 to 197 °C | CC(=O)Nc1c(C)ccc(N)c1C |
| 179 °C | CCCCc1nc2c(=O)[nH]ccc2n1Cc1ccc(-c2ccccc2C#N)cc1 |
| 112 to 113 °C | CC(C)(C)OC1CC(n2cnc3c(Cl)ncnc32)C2CC12COCc1ccccc1 (centres undefined) |
| 208 to 211 °C | Oc1ccc(O)c2c1CC=CC2 |
| 58 to 59 °C | CCCCCCCCc1ccc(OCC(=O)Cn2cccc2)cc1 |
| 132 to 135 °C | OCCC1(CCO)c2ccccc2Sc2ccccc21 |
| 144 to 146 °C | CC(=O)NC[C@H]1CN(c2ccc(N3CCC(Cc4noc(-c5ccccc5)n4)CC3)c(F)c2)C(=O)O1 |
| 213 to 215 °C | Cc1cc(Oc2ncnc3ccn(C)c23)ccc1NC(=O)Nc1cccc(C(F)(F)F)c1 |
| 269 °C | COc1ccc(-c2[nH]nc3c2C(=O)c2c(NC(=O)NNC(=O)CCCc4ccccc4)cccc2-3)cc1 |
| 122 °C | COc1cc2c(cc1OCc1ccccc1)C1Cc3c(Cl)cc(OC)c(OCCOCCO)c3CN1CC2 (centres undefined) |
| 195 to 200 °C | FC(F)(F)CCN1CCN(Cc2ccc3c(c2)-c2[nH]nc(-c4ccsc4)c2C3)CC1 |
| 100 to 104 °C | Cc1nc(-c2cnccn2)no1 |
| 226 to 228 °C | COc1c(N2CCC(n3nncc3C)C2)c(F)cc2c(=O)c(C(=O)O)cn(C3CC3)c12 (centres undefined) |
| 182 to 184 °C | CCn1ncc2c3noc(-c4cccc(F)c4)c3cnc21 |
| 91 to 93 °C | CCCCCCCCCCNC(=O)C=C(c1ccccc1)c1ccc([N+](=O)[O-])cc1 |
| 213 to 216 °C | CC1(C)CCc2c(ccc3c2C(=O)C(Br)=C(O)C3=O)O1 |
| 235 to 237 °C | O=C(O)c1nn(-c2ccc(Cl)cc2Cl)c2c1CCc1sc(Br)cc1-2 |
| > 200 °C | CC(=O)SCC(Cc1cccnc1)C(=O)Nc1cccc(C(=O)O)c1 (centres undefined) |
| 247 to 248 °C | COc1cccc2c1C(=O)N(CC(=O)N1c3ccccc3N(Cc3ccccc3)C(=O)[C@H]3CCC[C@H]31)C2=O (relative stereo) |
| 105 to 106 °C | O=C(Cc1ccccc1Cl)c1ccc(I)cc1 |
| 151 to 152 °C | COC(=O)Cc1ccc(OCC2CN(c3ccc(C(=N)N)cc3)C(=O)O2)cc1 (centres undefined) |
| 134 to 135 °C | Cc1nc(-c2cccc(C(F)(F)F)c2)oc1COc1ccc(CCC(=O)O)cc1 |

| melting point | Structure (SMILES) |
| --- | --- |
| 128 to 130 °C | COCn1ccc(C(=O)c2ccc(Cc3ccc(F)cc3)o2)c(O)c1=O |
| 201 to 202 °C | CS(=O)(=O)c1nc2ncc(Cl)cc2s1 |
| 122 °C | Ic1nnnn1Cc1ccccc1 |
| 125 °C | NCCCNc1ccc(Cl)nn1 |
| 105 to 106 °C | Cc1ccccc1-n1ccc2nnc3c(C)cccc3c21 |
| 97 to 99 °C | O=C(NC[C@H](O)c1ccccc1)c1ccnc(N2CCN(Cc3ccc(F)cc3)C2=O)c1 |
| 255 to 257 °C | CC(C)CNC(=O)c1ccc(C(=O)O)cc1[N+](=O)[O-] |
| 142 to 143 °C | CCN1c2ncc(CCc3cncnc3)cc2C(=O)N(C)c2cccnc21 |
| 189 to 190 °C | COc1ccc(-n2c(=O)cc(C)c3c(=O)n(-c4ccccc4)[nH]c32)cc1 |
| 221 to 222 °C | Cc1nc(-c2ccc(F)cc2)n(-c2ccc(S(N)(=O)=O)cn2)n1 |
| 203 to 206 °C | CSCC1Cc2cc(C)c3[nH]c(=O)ccc3c2O1 (centres undefined) |
| 65 to 68 °C | CCSc1nc(O)nn1CC |
| 115 to 117 °C | Cc1ccc(Cc2cnc(NCC(O)COc3cccc(CN4CCCCC4)c3)[nH]c2=O)cn1 (centres undefined) |
| 220 to 221 °C | N#Cc1ccccc1/C=C/C(=O)Nc1cc(Cl)cc(NC(=N)c2ccccc2)c1 |
| 196 to 197 °C | CC(=O)N1CCN(c2ccc(C3CCS(=O)(=O)NC3)cc2)CC1 (centres undefined) |
| 54 to 57 °C | CCCCc1oc2ccccc2c1CCc1ccc(OS(=O)(=O)c2ccc(C(=O)O)c(OC(C)=O)c2)cc1 |
| 100 to 101 °C | COC(=O)c1ccc(OC2=C3N=C4CCCCC4=C3C(Cc3ccc(OC)c(OC)c3)C=C2)o1 (centres undefined) |
| 78 °C | CCOC(=O)C(=CNC(C)(C)C)C(=O)c1cc(F)c(Cl)nc1Cl |
| 200 to 206 °C | CN(C)c1nc(-c2ccc3c(c2)OCO3)c2cc3c(cc2n1)OCO3 |
| 208 °C | CC1(C)CC(=O)c2c(S(C)(=O)=O)sc(C(=O)O)c2C1 |
| 237 to 240 °C | Cc1nc(-n2cc(-c3ccc(OCc4ccccc4)cc3)nn2)sc1C(=O)NCc1ccccc1 |

| Structure (SMILES) | melting point |
| --- | --- |
| O=c1[nH]c(=O)n(CCCCN2CC=C(c3ccc(Cl)cc3)CC2)c2ccccc12 | 162 to 166 °C |
| Cc1cc(C2=NOC(c3cc(Cl)cc(Cl)c3)(C(F)(F)F)C2)ccc1C(=O)Cl (centres undefined) | 140 to 143 °C |
| CN1CCC[C@@H]1Cc1c[nH]c2ccc(CS(=O)(=O)NC(C)(C)C)cc12 | 73 to 75 °C |
| c1cncc(C2=NOC(C3CC3)(N3CCCC3)C2)c1 (centres undefined) | 90 to 92 °C |
| COc1ccc2nc(C3=CCN(Cc4ccc(Cl)cc4)CC3)[nH]c2c1 | 203 to 205 °C |
| CC(C)(C)CCN1C(=O)C(N)C(=O)N(c2ccccc2F)c2ccccc21 (centres undefined) | 98 to 100 °C |
| CCOC(=O)c1nn(Cc2ccccc2F)c2ncccc12 | 85 °C |
| NCCc1c[nH]c2cc3c(cc12)C(=O)NCC3 | 82 to 86 °C |
| Cc1ccc(Nc2c3ccccc3nc3c(C)cccc23)cc1NC(=O)Oc1ccc(N(CCCl)CCCl)cc1 | 154 to 156 °C |
